≈ marks a conversion by molar mass, not a printed value. Square brackets hold non-standard residues; d marks the D form. Peptide text beside a SMILES is read from it. 2Nal = N[C@@H](Cc1ccc2ccccc2c1)C(=O)O; Nlys = NCCCCNCC(=O)O
Key:
in vitro [1] = type: cell-based, human; details: human
Description: (§1) The haemolytic activity of the 24 structurally related peptides (Table 1) was evaluated in erythrocytes from four different species (human, canine, bovine and rat) employing standard methodology. The subsequent release of haemoglobin was used to assess haemolytic activity as function of peptide and peptidomimetic concentration, with concentrations ranging from 0.15 to 150 µM (Presented in whole in Supplementary information Table S1–S4).
(§2) Human and rat (Sprague–Dawley) blood samples were purchased by Bioreclamation IVT (Westbury, NY, USA), collected in tubes containing heparin as anticoagulant and stored at 4 °C before use. Dog and bovine whole blood was collected from in-house animals at Zoetis Animal Health, Kalamazoo, Michigan and stored at 4 °C in tubes containing heparin as anticoagulant. 10 mL of each whole blood sample were centrifuged at 1,500 × g for 5 min and the resulting plasma fraction was removed from the samples. The pellets were washed with an equal volume (10 mL) of saline, mixing by inversion. The centrifuging and washing steps were repeated 5 times. After the last washing step, a volume of PBS was added, and the resulting samples were diluted 1:10 with PBS to yield an RBC concentration of ~ 5 × 10^8 RBC/mL. The assay was performed in a 384-well polypropylene microplate (Greiner 784201, Greiner Bio-One International, GMBH) through a Bravo Liquid Handling Platform 384 system (Agilent Technologies, Santa Clara, CA, USA) according to the previously published procedures. The compounds were tested in serial 1:1 dilutions in PBS, with final concentrations ranging from 150 to 1.2 µM. Melittin was used as reference lytic peptide. 1% TritonX100 and PBS were used as positive and negative (diluent) controls, respectively. The final concentrations were obtained by adding to the wells 7 µL of each solution, melittin or PBS, followed by 63 µL of RBCs to each well. The plate was sealed, shaken on a plate shaker for 20 s, incubated for one hour at 37 °C. Finally, it was centrifuged at 1,500 × g for 5 min at room temperature. 60 µL of supernatants were removed from all plate wells via a Bravo 384 robot and transferred to a flat-bottomed 384-well plate (Greiner UV-Star #7810801, Greiner Bio-One International, GMBH). The plate was centrifuged at 1,000 g for 1 min to remove air bubbles and optical density was measured at 405 nm using a plate reader. Percentage of haemolysis was calculated with the following equation: %haemolysis=(absorbance of test sample)-absorbance of diluent/absorbance of positive control-absorbance of diluent×100.

human erythrocytes = assay: in vitro; type: cell-based; details: for IC10 haemolysis: human erythrocytes; for IC50: red cells of human
Description: as §1, §2

in vitro [2] = type: cell-based, dog; details: dog
Description: as §1, §2

canine erythrocytes = assay: in vitro; type: cell-based, dog; details: for IC10 haemolysis: canine erythrocytes; for IC50: red cells of canine
Description: as §1, §2

in vitro [3] = type: cell-based, rat (Sprague–Dawley); details: Sprague-Dawley, rat
Description: as §1, §2

rat erythrocytes = assay: in vitro; type: cell-based, rat (Sprague–Dawley); details: for IC10 haemolysis: rat erythrocytes; for IC50: red cells of rat
Description: as §1, §2

in vitro [4] = type: cell-based, bovine; details: bovine
Description: as §1, §2

HaCaT cells = type: cell-based, human; details: 1 h
Description: (§3) An immortalised human keratinocyte (HaCaT) cell line (Gift from David Gram Naym at Bispebjerg Hospital, Denmark), a human liver cancer cell line (HepG2; ATCC HB-8065) and a human epithelial cervical cancer cell line (HeLa; ATCC CCL-2) were cultured to ∼90% confluence after 21–25 h of growth under standard conditions (5% CO2 at 37 °C). Cells were cultured in Dulbecco’s Modified Eagle’s Medium supplemented with 10% (v/v) fetal bovine serum (FBS). All culture media were supplemented with penicillin (100 IU/mL) and streptomycin (100 μg/mL). All cell media and supplements were obtained from Sigma-Aldrich (St. Louis, MO, United States). The 96-well plates were supplied by Corning Costar (Sigma-Aldrich, Brøndby, Denmark). Cell viability assessment was performed on cell monolayers grown to ∼90% confluence in 96-well plates by using the MTS/PMS assay as previously described. Briefly, the adhered cells were washed with PBS solution (37 °C) (ThermoFisher Scientific, Roskilde) and exposed for 1 h at 37 °C to 100 μL of peptides dissolved in the medium also used for culturing of the cell line (at concentrations in the range 0–1,000 μg/mL). The cells were subsequently washed twice with 37 °C PBS and then 100 μL of an MTS/PMS solution in media, consisting of 240 μg/mL MTS (Promega, Madison, WI, United States) and 2.4 mg/mL PMS (Promega, Madison, WI, United States), was added to the cells, which then were incubated for 1 h at 37 °C protected from light. A plate reader (SpectraMax i3X; Molecular devices, San Jose, CA) was used to measure the absorbance at 492 nm. The relative viability was calculated by using 0.2% (w/v) sodium dodecyl sulfate (SDS) as the positive control, while cells exposed to medium without test compound were used as the negative control.

HeLa cells = type: cell-based, human; details: 1 h
Description: as §3

[5] = system: Staphylococcus pseudintermedius; details: cited from earlier work
Staphylococcus aureus = system: Staphylococcus aureus; set-up: method as in PMID 30842436; details: cited from earlier work
Pseudomonas aeruginosa = system: Pseudomonas aeruginosa; set-up: method as in PMID 30842436; details: cited from earlier work
bovine erythrocytes = assay: in vitro; type: cell-based; details: bovine erythrocytes
Description: as §1, §2

Row | IC50 (human erythrocytes) [µM] | IC50 (canine erythrocytes) [µM] | IC50 (rat erythrocytes) [µM] | IC50 (HeLa cells) [mM] | Structure (SMILES) | hemolysis at 1 h, 150 µM (in vitro [1]) [%] | IC10 haemolysis (human erythrocytes) [µM] | hemolysis at 1 h, 150 µM (in vitro [2]) [%] | IC10 haemolysis (canine erythrocytes) [µM] | hemolysis at 1 h, 150 µM (in vitro [3]) [%] | IC10 haemolysis (rat erythrocytes) [µM] | hemolysis at 1 h, 150 µM (in vitro [4]) [%] | IC50 (HaCaT cells) [µM] | S.p. MIC ([5]; Staphylococcus pseudintermedius, Table S5, in µM) [µM] | MIC against Staphylococcus pseudintermedius [5] [µg/mL] | MIC against Staphylococcus aureus (Staphylococcus aureus) [µg/mL] | MIC against Pseudomonas aeruginosa (Pseudomonas aeruginosa) [µg/mL] | Haemolytic activity (in words) (human erythrocytes) | IC10 haemolysis (bovine erythrocytes) [µM]
1 | > 150 | > 150 | > 150 | 1.03 | CC(C)C[C@H](NC(=O)[C@H](Cc1cccc2ccccc12)NC(=O)[C@H](Cc1ccccc1)NC(=O)[C@@H](N)Cc1cccc2ccccc12)C(=O)N[C@@H](CCCCN)C(=O)N[C@@H](CCCCN)C(=O)N[C@@H](CCCCN)C(N)=O [Compound 5, (1-Nal)Ala-Phe-(1-Nal)Ala-Leu-Lys-Lys-Lys] (HELM PEPTIDE1{[N[C@@H](Cc1cccc2ccccc12)C(=O)[*:2]].F.[O=C([C@H](Cc1cccc2ccccc12)N[*:1])[*:2]].L.K.K.K.[am]}$$$$V2.0) | 36 | 35.3 | 22.5 | 29.6 | 10.2 | 147.7 | < 8 | 524 | 15.1 | 16 (≈ 15.1 µM) | 32 (≈ 30.3 µM) | > 64 |  | 
2 | > 150 | > 150 | > 150 |  | CC(C)C[C@H](NC(=O)CN(CCCCN)C(=O)CN(CCCCN)C(=O)CNCCCCN)C(=O)N[C@@H](Cc1ccc2ccccc2c1)C(=O)N[C@@H](Cc1ccccc1)C(=O)N[C@@H](Cc1ccc2ccccc2c1)C(N)=O [Compound 23, N-Lys-N-Lys-N-Lys-Leu-(2-Nal)Ala-Phe-(2-Nal)Ala] (H-[Nlys][Nlys][Nlys]L[2Nal]F[2Nal]-NH2) | 35.9 | 98.7 | 35.1 | 43.3 | < 8 | > 150 | 11.1 |  |  | 2 to 4 | 32 (≈ 30.3 µM) | 32 (≈ 30.3 µM) | not highly lytic | 145.8
3 | > 150 | > 150 | > 150 |  | CC(C)C[C@@H](NC(=O)[C@H](CCCCN)NC(=O)[C@H](CCCCN)NC(=O)[C@@H](N)CCCCN)C(=O)N[C@H](Cc1ccc2ccccc2c1)C(=O)N[C@H](Cc1ccc(O)cc1)C(=O)N[C@H](Cc1ccc2ccccc2c1)C(N)=O [Compound 24, Lys-Lys-Lys-Leu-(2-Nal)Ala-Tyr-(2-Nal)Ala] (HELM PEPTIDE1{K.K.K.[dL].[O=C([C@@H](Cc1ccc2ccccc2c1)N[*:1])[*:2]].[dY].[O=C([C@@H](Cc1ccc2ccccc2c1)N[*:1])[*:2]].[am]}$$$$V2.0) | 23.4 | 76.72 | 38.5 | 45.0 | < 8 | > 150 | 29.8 |  |  | 4 to 8 | 16 to 32 | 32 (≈ 29.8 µM) |  | 89.6
4 | 136 | > 150 | > 150 |  | CC(C)C[C@H](NC(=O)[C@H](CCCCN)NC(=O)[C@H](Cc1ccc2ccccc2c1)NC(=O)[C@H](Cc1ccccc1)NC(=O)[C@@H](N)Cc1ccc2ccccc2c1)C(=O)N[C@@H](CCCCN)C(=O)N[C@@H](CCCCN)C(N)=O [Compound 13, (2-Nal)Ala-Phe-(2-Nal)Ala-Lys-Leu-Lys-Lys] (HELM PEPTIDE1{[N[C@@H](Cc1ccc2ccccc2c1)C(=O)[*:2]].F.[O=C([C@H](Cc1ccc2ccccc2c1)N[*:1])[*:2]].K.L.K.K.[am]}$$$$V2.0; N-terminus assumed) | 55.3 | 44.2 | 27.4 | 27.1 | < 8 | > 150 | 17.6 |  |  | 4 to 8 | 16 (≈ 15.1 µM) | 64 (≈ 60.6 µM) |  | 96.7
5 | > 150 | > 150 | > 150 |  | CC(C)C[C@@H](NC(=O)[C@H](CCCCN)NC(=O)[C@H](CCCCN)NC(=O)[C@@H](N)CCCCN)C(=O)N[C@H](Cc1cccc2ccccc12)C(=O)N[C@H](Cc1ccc(O)cc1)C(=O)N[C@H](Cc1cccc2ccccc12)C(N)=O [Compound 21, Lys-Lys-Lys-Leu-(1-Nal)Ala-Tyr-(1-Nal)Ala] (HELM PEPTIDE1{K.K.K.[dL].[O=C([C@@H](Cc1cccc2ccccc12)N[*:1])[*:2]].[dY].[O=C([C@@H](Cc1cccc2ccccc12)N[*:1])[*:2]].[am]}$$$$V2.0) | < 8 | > 150 | 19.9 | 48.2 | < 8 | > 150 | 16 |  |  | 2 to 4 | 32 to 64 | 8 (≈ 7.46 µM) |  | 109.7
6 | 134 | > 150 | > 150 |  | CC(C)C[C@H](NC(=O)[C@H](CCCCN)NC(=O)[C@H](Cc1cccc2ccccc12)NC(=O)[C@H](Cc1ccccc1)NC(=O)[C@@H](N)Cc1cccc2ccccc12)C(=O)N[C@@H](CCCCN)C(=O)N[C@@H](CCCCN)C(N)=O [Compound 16, (1-Nal)Ala-Phe-(1-Nal)Ala-Lys-Leu-Lys-Lys] (HELM PEPTIDE1{[N[C@@H](Cc1cccc2ccccc12)C(=O)[*:2]].F.[O=C([C@H](Cc1cccc2ccccc12)N[*:1])[*:2]].K.L.K.K.[am]}$$$$V2.0) | 55.5 | 47.4 | 27.7 | 16.4 | 11 | 145.0 | 30.6 |  |  | 8 to 16 | 16 to 32 | 64 (≈ 60.6 µM) |  | 45.2
